Measurements as given in US4172148A, “Ruminant feeds containing trichloroethyl esters of essential amino acids” (E. R. Squibb & Sons, Inc., priority 1978, dated 1979).

Tests used:
[1] = test system: volatile fatty acid concentrations in the in vitro rumen fermentation; test: in vitro rumen fermentation, volatile fatty acids, high concentrate substrate, alfalfa hay:concentrate 1:3 (Examples 4 and 7); set-up: species or system sheep; conditions: for Acetic acid / Acetic:propionic / Butyric acid / Propionic acid / Total acids: hay:concentrate 1:3
Protocol: A one gram sample of substrate ground through a 1 mm screen is weighed into 100 ml. lipless beakers equipped with gas-release valves. The substrate consists of alfalfa hay containing approximately 16% protein and a concentrate containing ground corn 60.7%, alfalfa meal 17.5%, molasses 10.0%, soybean meal 5.3%, wheat bran 5.0%, trace mineralized salt 1.0%, limestone 0.5% and Vitamin D 300,000 I.U./ton, mixed in the proportion 3:1. The experimental composition is added to the substrate. 25 ml. of filtered rumen fluid obtained from fasted sheep maintained on feed the same as the above mentioned substrate and 25 ml. of McDougal's buffer solution serve as the inoculum. The buffer solution is as follows:
The fermentation mixture is flushed with carbon dioxide and the vessel is capped with a gas release valve. The fermentation vessel (beaker) is placed in a water bath and incubated at 39° C.±1° for six hours. The sample is mixed every hour by shaking the beaker.
At the end of the 6-hour fermentation period the sample is strained through 4 layers of cheesecloth into a sample bottle containing 1 ml. saturated solution of mercuric chloride. The sample is frozen immediately until analyzed for the volatile fatty acids (VFA) (mg/100 ml.). Prior to analysis, each sample is acidified with 30% phosphoric acid and then analyzed by gas chromatography using a column containing 5% nonylphenoxypolyoxyethylene ethanol plus 0.5% phosphoric acid on 100-120 mesh Gas Chrom S. The acids determined are acetic, propionic, butyric, isobutyric, valeric and isovaleric acids. Total VFA is considered as the addition of these acids. The ratio of acetic: propionic (A:P) is obtained by dividing the concentration of acetic acid by that of propionic acid.
The procedure is described in Example 3. In this example, however, the substrate consisted of alfalfa hay and concentrate in the ratio of 1:3 and inoculum was obtained from sheep fed alfalfa and concentrate in the ratio of 1:3. The concentrate (Fit-N-Fresh) is commercially available from Agway, Inc. and contains grain products, plant protein products, processed grain by-products, cane molasses, minerals, vitamins and a preservative.
The 2,2,2-trichloroethyl ester of glycine was tested in vitro in a manner similar to that described in Example 4.

[2] = test system: volatile fatty acid concentrations in the rumen of fistulated wethers; test: volatile fatty acid concentrations in the rumen of fistulated wethers, 454 g concentrate and 454 g chopped mixed hay (Example 6); format: in vivo, sheep; conditions: for Acetic:propionic ratio / Other acids (%) / Propionic acid (%) / Butyric acid (%) / Acetic acid (%) / Total acids: day 7
Source text: Mature sheep (wethers) fitted with permanent rumen fistulae were used to determine the effect of L-phenylalanine, 2,2,2-trichloroethyl ester on volatile fatty acid concentrations in vivo (3 wethers per treatment). The animals were individually penned and fed 227 g. of concentrate (described in Example 3) and 680 g. of alfalfa hay once daily. The test compound was admixed with the concentrate. The sheep were medicated for 7 days. Samples for analysis were obtained before (Day 0) and after treatment (Day 7) approximately 6 hours after feeding.
An experiment similar to that described in Example 5 was performed except that the animals (3 per treatment) were fed 454 g. of concentrate (described in Example 3) and 454 g. of chopped mixed (grasses) hay.

## Br.N[C@@H](Cc1ccccc1)C(=O)OCC(Cl)(Cl)Cl [L-Phenylalanine 2,2,2-trichloroethyl ester, hydrobromide]
[1]; 0.02 mg/ml
  Acetic acid: 80 % of control
  Acetic:propionic: 69 % of control
  Butyric acid: 114 % of control
  Propionic acid: 116 % of control
  Total acids: 95 % of control
[1]; 0.1 mg/ml
  Acetic acid: 76 % of control
  Acetic:propionic: 66 % of control
  Butyric acid: 113 % of control
  Propionic acid: 115 % of control
  Total acids: 92 % of control
[1]; 0.2 mg/ml
  Acetic acid: 76 % of control
  Acetic:propionic: 65 % of control
  Butyric acid: 113 % of control
  Propionic acid: 116 % of control
  Total acids: 92 % of control
[1]; 0.4 mg/ml
  Acetic acid: 79 % of control
  Acetic:propionic: 65 % of control
  Butyric acid: 116 % of control
  Propionic acid: 120 % of control
  Total acids: 96 % of control
[1]; 1.0 mg/ml
  Acetic acid: 76 % of control
  Acetic:propionic: 64 % of control
  Butyric acid: 112 % of control
  Propionic acid: 119 % of control
  Total acids: 92 % of control
[1]; high concentrate substrate
  effect on acetic:propionic ratio (in words): decreasing the acetic:propionic ratio
  effect on propionic acid concentration (in words): effective in increasing the propionic acid concentration
[2]; 200 mg/head/day, pre-treatment 3.38, control day 7 3.54
  Acetic:propionic ratio: 2.65
[2]; 200 mg/head/day, pre-treatment 5.2, control day 7 6.6
  Other acids (%): 8.2%
[2]; 200 mg/head/day, pre-treatment 17.5, control day 7 16.2
  Propionic acid (%): 19.0%
[2]; 200 mg/head/day, pre-treatment 18.4, control day 7 20.0
  Butyric acid (%): 22.5%
[2]; 200 mg/head/day, pre-treatment 58.8, control day 7 57.3
  Acetic acid (%): 50.3%
[2]; 200 mg/head/day, pre-treatment 731, control day 7 687
  Total acids: 663 mg/100 ml
[2]; 500 mg/head/day, pre-treatment 3.43, control day 7 3.54
  Acetic:propionic ratio: 2.18
[2]; 500 mg/head/day, pre-treatment 6.7, control day 7 6.6
  Other acids (%): 9.8%
[2]; 500 mg/head/day, pre-treatment 16.8, control day 7 16.2
  Propionic acid (%): 21.1%
[2]; 500 mg/head/day, pre-treatment 19.0, control day 7 20.0
  Butyric acid (%): 23.5%
[2]; 500 mg/head/day, pre-treatment 57.5, control day 7 57.3
  Acetic acid (%): 45.7%
[2]; 500 mg/head/day, pre-treatment 851, control day 7 687
  Total acids: 734 mg/100 ml
[2]; fistulated wethers, 7 days
  effect on acetic:propionic ratio (in words): decreasing the acetic:propionic ratio
  effect on proportion of propionic acid (in words): effective in increasing the proportion of propionic acid
